According to patent US20110021530A1, “PYRIDAZINE DERIVATIVES AND THEIR USE AS THERAPEUTIC AGENTS IN THE TREATMENT OF SKIN DISORDERS” (XENON PHARMACEUTICALS INC., priority 2008, published 2011):
Marks after values point to notes of the source that are not given here.

What was measured:
[1] = Solubility in co-solvents; format: physicochemical; conditions: compared with other co-solvents
sebaceous glands = experiment: Effect of topically administered LCF369 on the sebaceous glands of NMRI mice (histomorphometry); format: in vivo, female Crl:NMRI mice; conditions: for atrophogenic effect (recovery): 1% LCF369 7-day treatment
Protocol: LCF369 is prepared either in a solution of ethanol/propylene glycol (3/7, v/v) or in topical formulations at 1.0, 0.5 or 0.1% for testing in female Crl:NMRI mice. In general, shaved application sites of approximately 2.5 cm^2 on the back of mice are treated twice daily (once on weekends or at study termination) with 50 μl of the LCF369 preparations. To prevent the animals from potential oral uptake of the epicutaneously applied compounds, they are fitted with ruffs and housed individually. After the last application, the animals are euthanised; the treated sites dissected and prepared for histological sections. Hematoxilin/eosin (HE)-stained 3 μm-thick sections are prepared from formalin-fixed, paraffin-embedded tissue. From each animal, one HE-stained section per site is histomorphometrically examined. The entire sections of approximately 10 mm length are evaluated microscopically (200×) for sebaceous glands. The mean size and mean number (per mm^2 dermis) of sectioned alveolar units of the sebaceous glands are determined in a coded fashion with an image analyzer (Axiovision, Zeiss). For statistical analysis, morphometric data are analyzed with a T-test or Mann-Whitney rank sum test. Frozen tissue sections (5 μm) are used for oil red O (lipid) staining.
Groups of 5 mice are treated with 50 μl of 1% or 0.1% LCF369 twice daily (except on weekends, when the animals are treated once daily and on study termination) for 8 days (i.e. 14 applications in total). Four control animals are treated similarly with the vehicle alone. In life, the animals are observed for clinical signs and macroscopic changes of the application sites. One day after the last application, an evaluation is performed. In animals treated with 1.0% LCF369, untreated skin samples distant from the treated sites are also collected in order to assess systemic activity due to percutaneous absorption of LCF369.
Groups of 4 mice are treated with 1.0% LCF369 twice daily for 2, 4, 6 and 8 days (i.e. up to 16 applications). Control groups remain untreated or are treated with the vehicle alone twice daily for 8 days.
LCF369 is tested at 1.0%, 0.5% and 0.1%, groups of 6 mice are treated twice daily for 7 consecutive days. Evaluation is performed on the day following the 14th application.
A 7-day b.i.d. (twice daily) treatment schedule (except on week ends when the animals were treated once daily) with 1.0% LCF369 is applied to groups of 7 mice which are evaluated on days 8 (one day after the 14th application), 24 and 41. For comparison, skin sections from animals treated with vehicle are examined on day 8 and skin samples from untreated animals of the same delivery were examined in parallel on days 8 and 41.
Three different formulations containing 0.5% LCF369 are tested: i) emulsion gel with the penetration enhancer SEPA-9™ (batch 92.66.01-ra), ii) emulsion gel without a penetration enhancer (batch 9450-05-Ra), and iii) a formulation containing particulate compound (“follicular targeting formulation”). They are evaluated after 9 or 13 applications.

[2] = 0.1% LCF369 topical, 8 days (14 applications), treated sites (locally), day 9, mean (SD), 5 animals
[3] = 0.5% LCF369 emulsion gel containing SEPA-9, 9 applications, mean (SD), 3 animals
[4] = 0.5% LCF369 emulsion gel containing SEPA-9, 13 applications, mean (SD), 3 animals
[5] = 0.5% LCF369 twice daily 7 days, vs vehicle-treated controls
[6] = 1.0% LCF369 topical, 8 days (14 applications), treated sites (locally), day 9, mean (SD), 5 animals
[7] = 1.0% LCF369 topical, 8 days, sites distant from the treated sites (distantly), day 9, mean (SD), 5 animals
[8] = 1% LCF369 twice daily 7 days, vs vehicle-treated controls
[9] = 1.0% LCF369 twice daily for 8 days as printed, vs vehicle, time point of this value not stated
[10] = 1.0% LCF369 twice daily, 2 days of treatment, one day after last application, 4 animals
[11] = 1.0% LCF369 twice daily, 4 days of treatment
[12] = 1.0% LCF369 twice daily, 6 days of treatment
[13] = 1.0% LCF369 twice daily, 8 days of treatment
[14] = 1.0% LCF369 twice daily, after 4 days, vs vehicle
[15] = 1.0% LCF369 twice daily, after 6 days, vs vehicle
[16] = 1.0% LCF369 twice daily, after 8 days, vs vehicle
[17] = LCF 1%, 7-day b.i.d. treatment, evaluation day 8 (one day after last application), 7 animals
[18] = LCF 1%, 7-day treatment, evaluation day 24 (17 days after last application)
[19] = LCF 1%, 7-day treatment, evaluation day 41 (34 days after last application)
[20] = LCF369 0.1% (w/v) twice daily for 7 days
[21] = LCF369 0.5% (w/v) twice daily for 7 days
[22] = LCF369 1.0% (w/v) twice daily for 7 days, one day after last application, 6 animals
[23] = LCF369-treated vs vehicle-treated skin
[24] = one day after the 7 days-treatment period with 1% LCF369

## O=C(NCCC1CC1)c1ccc(N2CCN(C(=O)c3cc(F)ccc3C(F)(F)F)CC2)nn1 [LCF369, 6-[4-(5-Fluoro-2-trifluoromethylbenzoyl)piperazin-1-yl]pyridazine-3-carboxylic acid (2-cyclopropylethyl)amide]
[1]
  solubility in benzyl alcohol: surprisingly good solubility
Sebaceous glands; 0.1% LCF369, 8 days
  atrophogenic effect: little or no atrophogenic effects
Sebaceous glands; [2]
  Number of sebaceous glandular units: 34.3 (4.1) per mm^2 dermis
  Size of sebaceous glandular units: 1090 (200) μm^2
Sebaceous glands; [3]
  Number of sebaceous glandular units: 10.6 (5.89)*
  Size (μm^2) of sebaceous glandular units: 745.8 (339.3)*** μm^2
Sebaceous glands; [4]
  Number of sebaceous glandular units: 10.1 (3.48)*
  Size (μm^2) of sebaceous glandular units: 946.1 (134.0)*** μm^2
Sebaceous glands; 0.5% LCF369 formulation containing SEPA-9 vs placebo-treated (vehicle-treated) samples
  hyper/parakeratosis and acanthosis in skin sections: hyper/parakeratosis and acanthosis is more pronounced
Sebaceous glands; 0.5% LCF369 formulation containing penetration enhancer SEPA-9, 9 and 13 applications
  effect on sebaceous glands: significant atrophy of sebaceous glands
Sebaceous glands; [5]
  reduction of mean size of sebaceous glands: 48%
  reduction of numbers of sebaceous glands per mm^2 dermis: 38%
Sebaceous glands; day 24
  atrophogenic effect (recovery): substantially reduced
Sebaceous glands; day 41
  atrophogenic effect (recovery): almost completely absent
Sebaceous glands; 1.0% LCF369, 8 days, distant sites
  differences in numbers and sizes of sebaceous glands at sites distant from the LCF369 treatments: no significant differences
Sebaceous glands; 1.0% LCF369, 8 days, vs vehicle, p<0.001
  reduction of sebaceous glands in numbers, factor: about 2.5
Sebaceous glands; 1.0% LCF369, 8 days, vs vehicle, p<0.01
  reduction of sebaceous glands in sizes: about 1.9 fold
Sebaceous glands; [6]
  Number of sebaceous glandular units: 13.7 (8.2) *** per mm^2 dermis
  Size of sebaceous glandular units: 571 (200) ** μm^2
Sebaceous glands; [7]
  Number of sebaceous glandular units: 28.4 (6.0) per mm^2 dermis
  Size of sebaceous glandular units: 1090 (250) μm^2
Sebaceous glands; [8]
  reduction of numbers of sebaceous glands: 57%
  reduction of size of sebaceous glands: 60%
Sebaceous glands; 1.0% LCF369 twice daily (8 applications)
  treatment period after which the effect is statistically significant: 4 days
Sebaceous glands; [9]
  progressive decrease in the numbers of sebaceous glands: 12%
  progressive decrease in the size of sebaceous glands: 19%
Sebaceous glands; [10]
  Number of sebaceous glandular units: 24.8 per mm^2 dermis
  Size (μm^2) of sebaceous glandular units: 1095 μm^2
Sebaceous glands; [11]
  Number of sebaceous glandular units: 18.0 per mm^2 dermis
  Size (μm^2) of sebaceous glandular units: 875 μm^2
Sebaceous glands; [12]
  Number of sebaceous glandular units: 12.6 per mm^2 dermis
  Size (μm^2) of sebaceous glandular units: 613 μm^2
Sebaceous glands; [13]
  Number of sebaceous glandular units: 7.0 per mm^2 dermis
  Size (μm^2) of sebaceous glandular units: 374 μm^2
Sebaceous glands; [14]
  decrease of mean size of sebaceous glands: 35%
  reduction of numbers of sebaceous glands: 35%
Sebaceous glands; [15]
  decrease of mean size of sebaceous glands: 35%
  reduction of numbers of sebaceous glands: 54%
Sebaceous glands; [16]
  decrease of mean size of sebaceous glands: 72%
  reduction of numbers of sebaceous glands: 75%
Sebaceous glands; [17]
  Number of sebaceous glandular units: 9.28
  Size (μm^2) of sebaceous glandular units: 708 μm^2
Sebaceous glands; [18]
  Number of sebaceous glandular units: 17.4
  Size (μm^2) of sebaceous glandular units: 1154 μm^2
Sebaceous glands; [19]
  Number of sebaceous glandular units: 21
  Size (μm^2) of sebaceous glandular units: 1456 μm^2
Sebaceous glands; [20]
  Number of sebaceous glandular units: 23.8 per mm^2 dermis
  Size (μm^2) of sebaceous glandular units: 1396 μm^2
Sebaceous glands; [21]
  Number of sebaceous glandular units: 14.5 per mm^2 dermis
  Size (μm^2) of sebaceous glandular units: 870 μm^2
Sebaceous glands; [22]
  Number of sebaceous glandular units: 10.1 per mm^2 dermis
  Size (μm^2) of sebaceous glandular units: 675 μm^2
Sebaceous glands; [23]
  histochemical (HE) staining of skin, sebaceous glands (FIG. 2B): fewer and smaller (atrophic) sebaceous glands
  oil red O staining, lipids associated with hair shafts (FIG. 3B): significantly reduced lipids associated with hair shafts
Sebaceous glands; applied twice daily (50 μL each time) for 7 days
  minimal statistically significant effective concentration: 0.5%
Sebaceous glands; [24]
  reduction of mean size of sebaceous glands: 50%
  reduction of numbers of sebaceous glands: 57%
Sebaceous glands; topical application
  concentration at which efficacy is seen: ≥ 0.4%
  treatment time at which efficacy is seen: ≥ 4 days
